Source: US11299501B2 (BRISTOL-MYERS SQUIBB COMPANY, priority 2017, dated 2022)

Experiments:
Format in all cases: cell-based
human TLR7 = target: T1, human TLR7 (Homo sapiens, UniProt Q9NYK1); assay: TLR7 inhibition reporter assay (HEK-Blue SEAP); conditions: cells overexpressing human TLR7, SEAP reporter, stimulated with gardiquimod 7.5 μM, 22 hour incubation
T1 construct: host or cells: HEK-Blue cells
T1 sequence (Q9NYK1 27-1049): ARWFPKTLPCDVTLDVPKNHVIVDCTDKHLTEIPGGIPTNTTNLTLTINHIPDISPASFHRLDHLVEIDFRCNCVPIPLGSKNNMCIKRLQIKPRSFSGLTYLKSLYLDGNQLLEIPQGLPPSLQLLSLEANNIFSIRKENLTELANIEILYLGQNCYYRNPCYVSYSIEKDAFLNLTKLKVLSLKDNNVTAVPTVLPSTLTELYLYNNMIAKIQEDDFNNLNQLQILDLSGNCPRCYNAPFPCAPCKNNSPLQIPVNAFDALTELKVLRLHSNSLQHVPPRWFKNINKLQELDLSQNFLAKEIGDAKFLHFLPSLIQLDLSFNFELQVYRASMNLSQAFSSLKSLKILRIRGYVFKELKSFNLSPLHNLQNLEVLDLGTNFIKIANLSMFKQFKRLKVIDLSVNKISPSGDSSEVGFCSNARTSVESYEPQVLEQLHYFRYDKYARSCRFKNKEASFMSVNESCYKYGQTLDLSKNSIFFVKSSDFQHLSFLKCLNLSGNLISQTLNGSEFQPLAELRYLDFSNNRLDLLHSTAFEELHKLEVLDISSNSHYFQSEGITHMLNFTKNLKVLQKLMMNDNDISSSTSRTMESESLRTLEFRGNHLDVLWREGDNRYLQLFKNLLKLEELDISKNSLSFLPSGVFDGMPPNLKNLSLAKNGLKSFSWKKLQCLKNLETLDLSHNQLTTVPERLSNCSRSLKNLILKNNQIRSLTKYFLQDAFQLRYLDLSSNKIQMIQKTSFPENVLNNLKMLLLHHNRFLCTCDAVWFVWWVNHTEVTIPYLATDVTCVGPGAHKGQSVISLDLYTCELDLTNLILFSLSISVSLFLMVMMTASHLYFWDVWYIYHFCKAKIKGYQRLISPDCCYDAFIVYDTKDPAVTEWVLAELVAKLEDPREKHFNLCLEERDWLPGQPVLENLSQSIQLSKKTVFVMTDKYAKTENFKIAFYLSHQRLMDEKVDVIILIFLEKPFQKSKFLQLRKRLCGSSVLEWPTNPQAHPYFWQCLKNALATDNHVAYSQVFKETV
Method: (§1) TLR7/8/9 Inhibition Reporter Assays
(§2) […] (Invivogen) overexpressing human TLR7, TLR8 or TLR9 receptors were used for screening inhibitors of these receptors using an inducible SEAP (secreted embryonic alkaline phosphatase) reporter gene under the control of the IFN-β minimal promoter fused to five NF-κB and AP-1-binding sites. Briefly, cells are seeded into Greiner 384 well plates (15000 cells per well for TLR7, 20,000 for TLR8 and 25,000 for TLR9) and then treated with test compounds in DMSO to yield a final dose response concentration range of 0.05 nM-50 μM. After a 30 minute compound pre-treatment at room temperature, the cells are then stimulated with a TLR7 ligand (gardiquimod at a final concentration of 7.5 μM). TLR8 ligand (R848 at a final concentration of 15.9 μM) or TLR9 ligand (ODN2006 at a final concentration of 5 nM) to activate NF-κB and AP-1 which induce the production of SEAP. After a 22 hour incubation at 37° C., 5% CO2, SEAP levels are determined with the addition of HEK-Blue™ Detection reagent (Invivogen), a cell culture medium that allows for detection of SEAP, according to manufacturer's specifications. The percent inhibition is determined as the % reduction in the HEK-Blue signal present in wells treated with agonist plus DMSO alone compared to wells treated with a known inhibitor.

human TLR8 = target: T2, human TLR8 (Homo sapiens, UniProt Q9NR97); assay: TLR8 inhibition reporter assay (HEK-Blue SEAP); conditions: cells overexpressing human TLR8, SEAP reporter, stimulated with R848 15.9 μM, 22 hour incubation
T2 construct: host or cells: HEK-Blue cells
T2 sequence (Q9NR97 27-1041): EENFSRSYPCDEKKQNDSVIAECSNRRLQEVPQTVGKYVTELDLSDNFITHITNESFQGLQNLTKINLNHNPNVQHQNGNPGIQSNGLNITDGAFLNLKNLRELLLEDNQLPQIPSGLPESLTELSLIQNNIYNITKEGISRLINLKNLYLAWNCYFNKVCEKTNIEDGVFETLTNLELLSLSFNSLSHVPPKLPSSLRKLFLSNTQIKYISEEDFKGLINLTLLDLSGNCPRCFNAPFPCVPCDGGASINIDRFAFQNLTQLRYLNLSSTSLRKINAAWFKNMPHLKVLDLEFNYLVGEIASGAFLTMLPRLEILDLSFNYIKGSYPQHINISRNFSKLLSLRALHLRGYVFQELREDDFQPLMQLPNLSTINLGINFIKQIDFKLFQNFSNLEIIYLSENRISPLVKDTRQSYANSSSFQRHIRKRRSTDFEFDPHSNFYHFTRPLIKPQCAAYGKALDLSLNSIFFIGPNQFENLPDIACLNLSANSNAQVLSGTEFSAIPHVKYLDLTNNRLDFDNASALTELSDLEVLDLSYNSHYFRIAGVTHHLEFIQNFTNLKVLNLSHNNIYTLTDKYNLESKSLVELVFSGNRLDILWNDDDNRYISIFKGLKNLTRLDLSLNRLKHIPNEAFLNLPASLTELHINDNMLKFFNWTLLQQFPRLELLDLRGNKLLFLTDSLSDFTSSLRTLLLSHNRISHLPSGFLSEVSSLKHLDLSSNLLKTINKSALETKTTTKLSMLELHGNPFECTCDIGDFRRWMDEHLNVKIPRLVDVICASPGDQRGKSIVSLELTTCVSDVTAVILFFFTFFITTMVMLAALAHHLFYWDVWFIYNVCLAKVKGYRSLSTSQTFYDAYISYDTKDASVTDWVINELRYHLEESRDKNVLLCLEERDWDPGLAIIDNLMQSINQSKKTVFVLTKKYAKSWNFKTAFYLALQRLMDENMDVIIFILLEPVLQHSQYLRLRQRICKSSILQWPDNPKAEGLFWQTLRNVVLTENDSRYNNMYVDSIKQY
Method: as §1, §2

human TLR9 = target: T3, human TLR9 (Homo sapiens, UniProt Q9NR96); assay: TLR9 inhibition reporter assay (HEK-Blue SEAP); conditions: cells overexpressing human TLR9, SEAP reporter, stimulated with ODN2006 5 nM, 22 hour incubation
T3 construct: host or cells: HEK-Blue cells
T3 sequence (Q9NR96 26-1032): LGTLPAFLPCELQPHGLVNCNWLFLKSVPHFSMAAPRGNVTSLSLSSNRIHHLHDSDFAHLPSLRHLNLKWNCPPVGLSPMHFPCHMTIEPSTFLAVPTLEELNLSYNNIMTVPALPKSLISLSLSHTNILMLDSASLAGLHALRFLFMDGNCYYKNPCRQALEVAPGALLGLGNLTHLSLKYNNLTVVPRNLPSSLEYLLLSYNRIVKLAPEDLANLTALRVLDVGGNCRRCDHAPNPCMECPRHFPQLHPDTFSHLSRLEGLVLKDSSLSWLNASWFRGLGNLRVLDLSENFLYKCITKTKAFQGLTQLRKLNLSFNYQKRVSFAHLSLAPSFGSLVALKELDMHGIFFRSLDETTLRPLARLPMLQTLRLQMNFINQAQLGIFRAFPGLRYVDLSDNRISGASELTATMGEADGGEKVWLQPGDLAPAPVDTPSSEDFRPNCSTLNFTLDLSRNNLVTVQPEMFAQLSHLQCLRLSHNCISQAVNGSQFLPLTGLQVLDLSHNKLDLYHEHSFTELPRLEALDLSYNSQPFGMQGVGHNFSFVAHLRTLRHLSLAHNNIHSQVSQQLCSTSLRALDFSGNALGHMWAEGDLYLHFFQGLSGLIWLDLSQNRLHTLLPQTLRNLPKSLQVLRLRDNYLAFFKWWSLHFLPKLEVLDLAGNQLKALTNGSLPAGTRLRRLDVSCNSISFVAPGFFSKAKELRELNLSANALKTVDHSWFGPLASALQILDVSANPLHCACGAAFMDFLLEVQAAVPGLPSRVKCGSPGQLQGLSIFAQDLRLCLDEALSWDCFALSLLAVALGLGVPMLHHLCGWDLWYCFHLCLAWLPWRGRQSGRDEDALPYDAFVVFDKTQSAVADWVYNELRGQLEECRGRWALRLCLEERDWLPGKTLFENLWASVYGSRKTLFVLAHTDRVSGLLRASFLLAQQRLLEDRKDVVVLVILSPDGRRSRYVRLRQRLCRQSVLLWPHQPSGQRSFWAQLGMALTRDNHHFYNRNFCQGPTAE
Method: as §1, §2

SMILES	IC50 (human TLR7) [nM]	IC50 (human TLR8) [nM]	IC50 (human TLR9) [nM]
Cc1cc(-c2[nH]c3cnc(C4CCN(CC(=O)N(C)C)CC4)nc3c2C(C)C)cn2ncnc12 [Example 29, 2-(4-(7-isopropyl-6-(8-methyl-[1,2,4]triazolo[1,5-a]pyridin-6-yl)-5H-pyrrolo[3,2-d]pyrimidin-2-yl)piperidin-1-yl)-N,N-dimethylacetantide]	< 100	< 100	1000 to 50000
CCc1c(-c2ccnc(C)c2)[nH]c2cnc(C3CCN(C4CCN(C(C)C)CC4)CC3)nc12 [Example 23, 7-ethyl-2-(1′-isopropyl-[1,4′-bipiperidin]-4-yl)-6-(2-methylpyridin-4-yl)-5H-pyrrolo[3,2-d]pyrimidine]	100 to 1000	< 100	100 to 1000
Cc1cc(-c2[nH]c3cnc(C4CCN(C5COC5)CC4)nc3c2C(C)C)cn(C)c1=O [Example 8, 5-(7-isopropyl-2-(1-(oxetan-3-yl)piperidin-4-yl)-5H-pyrrolo[3,2-d]pyrimidin-6-yl)-1,3-dimethylpyridin-2(1H)-one]	< 100	< 100	1000 to 50000
CCc1c(-c2ccc(OC)c(OC)c2)[nH]c2ncc(C3CCNCC3)nc12 [Example 3, 6-(3,4-dimethoxyphenyl)-7-ethyl-2-(piperidin-4-yl)-5H-pyrrolo[2,3-b]pyrazine]	100 to 1000	100 to 1000	100 to 1000
CCc1c(-c2ccc(OC)c(OC)c2)[nH]c2nnc(C3CCN(C4CCN(C(C)C)CC4)CC3)cc12 [Example 2, 6-(3,4-dimethoxyphenyl)-5-ethyl-3-(1′-isopropyl-[1,4′-bipiperidin]-4-yl)-7H-pyrrolo[2,3-c]pyridazine]	100 to 1000	100 to 1000	100 to 1000
Cc1cc(-c2[nH]c3cnc(C4CCN(C5CCOC5)CC4)nc3c2C(C)C)cn(C)c1=O (stereo not drawn) [Example 12, 5-(7-isopropyl-2-(1-(tetrahydrofuran-3-yl)piperidin-4-yl)-5H-pyrrolo[3,2-d]pyrimidin-6-yl)-1,3-dirnethylpyridin-2(1H)-one]	< 100	< 100	1000 to 50000
CCc1c(-c2ccc(OC)c(OC)c2)[nH]c2cnc(C3CCN(CC(=O)NC)CC3)nc12 [Example 50]	100 to 1000	100 to 1000	1000 to 50000
Cc1c(-c2[nH]c3cnc(C4CCN(C5COC5)CC4)nc3c2C(C)C)cn2ncnc2c1C [Example 19, 6-(7-isopropyl-2-(1-(oxetan-3-yl)piperidin-4-yl)-5H-pyrrolo[3,2-d]pyrimidin-6-yl)-7,8-dimethyl-[1,2,4]triazolo[1,5-a]pyridine]	< 100	< 100	1000 to 50000
Cc1cc(-c2[nH]c3cnc(C4CCN(CC(=O)N(C)C)CC4)nc3c2C(C)C)cn(C)c1=O [Example 32, 2-(4-(6-(1,5-dimethyl-6-oxo-1,6-dihydropyridin-3-yl)-7-isopropyl-5H-pyrrolo[3,2-d]pyrimidin-2-yl)piperidin-1-yl)-N,N-dimethylacetainide]	< 100	< 100	1000 to 50000
CCc1c(-c2ccc(OC)c(OC)c2)[nH]c2cnc(-c3nnc(C(C)(C)N)o3)nc12 [Example 39, 2-(5-(6-(3,4-dimethoxyphenyl)-7-ethyl-5H-pyrrolo[3,2-d]pyrimidin-2-yl)-1,3,4-oxadiazol-2-yl)propan-2-amine]	1000 to 50000	1000 to 50000	> 50000
Cc1cc(-c2[nH]c3cnc(C4CCN(CC(C)(C)O)CC4)nc3c2C(C)C)cn2ncnc12 [Example 20, 1-(4-(7-isopropyl-6-(8-methyl-[1,2,4]triazolo[1,5-a]pyridin-6-yl)-5H-pyrrolo[3,2-d]pyrimidin-2-yl)piperidin-1-yl)-2-methylpropan-2-ol]	< 100	< 100	1000 to 50000
CCc1c(-c2ccc(OC)c(OC)c2)[nH]c2cnc(-c3nnc(CCNC)o3)nc12 [Example 38, 2-(5-(6-(3,4-dimethoxyphenyl)-7-ethyl-5H-pyrrolo[3,2-d]pyrimidin-2-yl)-1,3,4-oxadiazol-2-yl)-N-methylethan-1-amine]	1000 to 50000	100 to 1000	1000 to 50000
CCc1c(-c2ccc(OC)c(OC)c2)[nH]c2cnc(-c3nnc(N)o3)nc12 [Example 53, 5-(6-(3,4-dimethoxyphenyl)-7-ethyl-5H-pyrrolo[3,2-d]pyrimidin-2-yl)-1,3,4-oxadiazol-2-amine]	> 50000	1000 to 50000	> 50000
